What was measured:
panel of 4 panelists = test: Organoleptic test of intrinsic sweet taste against sucrose; format: in vivo; settings: 0.5 mg/ml (500 ppm) in non-carbonated mineral water; for sweetness compared with a solution of sucrose 20 mg/ml (control solution): control sucrose 20 mg/ml
Procedure: Organoleptic Test of the Compounds of Formula (I) Against Sucrose
Intrinsic sweet taste: The isolated pure compounds were dissolved in non-carbonated mineral water (“Fonsana Quelle”) in a concentration of 0.5 mg/ml (500 ppm). The sweet taste of each sample was compared by a panel of 4 panelists with a solution of sucrose in a concentration of 20 mg/ml.

[1] = tested on: panel of 3 sweet sensitive panelists; test: Organoleptic test of sweetness enhancement in combination with sucrose; format: in vivo; settings: concentration stated to be near the sweetness detection threshold
Procedure: Organoleptic Test of the Compounds of Formula (I) in Combination with Known Sweeteners
Combination of (I) with Sucrose.
The sweetness enhancement properties of compound Aa and Bb was determined using a sample having a concentration of 100 μg/ml compound Aa and Bb, which is near the sweetness detection threshold, in 7% sucrose solution. The compound Aa and Bb sample was directly compared to samples of 7%, 8% or 9% sucrose, and panelists were instructed to compare the sweetness intensity of the samples. The comparisons were carried out by a panel of 3 sweet sensitive panelists. All samples were presented to panelists in 5 ml aliquots at ambient temperature. Panelists compared the compound Aa and Bb sample to each of the sucrose samples.

Structure (SMILES): OC[C@H]1O[C@@H](Oc2ccc(/C=C/c3cc(O)cc(O)c3)cc2O)[C@H](O)[C@@H](O)[C@@H]1O [Compound Bb, Piceatannol 4′-O-β-D-glucopyranoside]
- off-taste (panel of 4 panelists): no significant off-taste
- sweetness compared with a solution of sucrose 20 mg/ml (control solution) (panel of 4 panelists): comparable with the control solution
- sweetness detection threshold [1]: ~100 µg/mL

Structure (SMILES): COc1cc(/C=C/c2cc(O)cc(O)c2)ccc1O[C@@H]1O[C@H](CO)[C@@H](O)[C@H](O)[C@H]1O [Compound Aa, Gnetifolin E]
- off-taste (panel of 4 panelists): no significant off-taste
- sweetness compared with a solution of sucrose 20 mg/ml (control solution) (panel of 4 panelists): comparable with the control solution
- sweetness detection threshold [1]: ~100 µg/mL

Reference: patent US10653172B2, “Natural stilbenes as sweeteners or sweetener enhancer” (Analyticon Discovery GmbH, priority 2015, dated 2020)
